Measurements reported in patent US7763626B2, “Compositions and method for enhancing the therapeutic activity of opiods in treatment of pain” (Trustees of Dartmouth College, priority 2004, dated 2010).

Legend:
Type in all cases: in vivo, rat
GLAST protein = assay: Western blot analysis of ipsilateral lumbar spinal cord; settings: day 4
Procedure: (§1) Experiments were performed to determine how propentofylline-induced suppression of glial activation contribute to reduced behavioral hypersensitivity after nerve injury. In a preventative paradigm, 10 μg of propentofylline (Sigma) to male Sprague-Dawley rats in 40 μl of sterile saline, or saline vehicle alone was administered intrathecally (i.t.) by lumbar puncture at the L4/5 level under brief halothane anesthesia (n=6-8/group). Treatment began one hour prior to L5 spinal nerve transection and continued daily in the evening until day 4 or 12 post-transection. Rats received either an L5 spinal nerve transection or sham surgery on day 0. The development of mechanical allodynia was monitored as described above in the morning at approximately 15 hours post-propentofylline or saline injection. Rats were euthanized on day 4 or 12 post-transection and tissue was further processed by real time RT-PCR, Western blot, or immunohistochemistry for determination of levels and rate of synthesis of the glutamate transporters GLT-1 and GLAST.
(§2) Tissue was collected from 4-5 rats/group on postoperative days 4 or 12. […]
(§3) Protein obtained from L5 lumbar spinal cord was quantified using the Lowry method (DC assay, Bio-Rad, Richmond, Calif.). […]

GLT-1 protein = assay: as above; settings: day 12
Procedure: as §1, §2, §3

TNF-α protein = assay: Cytokine protein estimation by ELISA at L5 spinal cord; settings: propentofylline 10 micrograms intrathecally for 5 days during induction of morphine tolerance
Procedure: (§4) Quantitative determination of IL-1β, TNF-α and IL-6 protein was performed on the L5 spinal cord of the rats. […] Briefly, weighed sections of L5 spinal cord were homogenized in a homogenization buffer consisting of a protease inhibitor using the a Power Gen 125 tissue tearer (Fisher Scientific, Suwanee, Ga.). Samples were spun at 20,000×g for 30 minutes at 4° C. Supernatant was aliquoted and stored at −80° C. for future protein quantification. IL-1β and TNF-α (R&D Systems, Minneapolis, Minn.) and IL-6 (Biosource, Camarillo, Calif.) protein concentrations were determined utilizing the quantitative sandwich enzyme immunoassay.

IL-1β protein = assay: as above; settings: propentofylline 10 micrograms intrathecally for 5 days during induction of morphine tolerance
Procedure: as §4

IL-6 protein = assay: as above; settings: propentofylline 10 micrograms intrathecally for 5 days during induction of morphine tolerance
Procedure: as §4

SMILES: CCCn1cnc2c1c(=O)n(CCCCC(C)=O)c(=O)n2C [propentofylline]
- GLAST protein compared with saline-treated injured rats (GLAST protein): significant decrease
- GLT-1 protein compared with L5 spinal nerve transection alone (GLT-1 protein): significantly elevated
- morphine-induced TNF-α protein levels (TNF-α protein): significantly attenuated
- morphine-induced IL-1β protein levels (IL-1β protein): significantly attenuated
- morphine-induced IL-6 protein levels (IL-6 protein): significantly attenuated
